PMC8545111, “Molecular Basis of the Versatile Regulatory Mechanism of HtrA-Type Protease AlgW from Pseudomonas aeruginosa” (mBio, 2021)
“And” between values parts separate entries of the source, which are not always exact repeats. Equal entries are not always repeated. Non-standard residues stand in square brackets, D forms with d. Residues, ends and D or L forms follow the SMILES beside them. *: point of attachment. pNA = O=[N+]([O-])c1ccc(N*)cc1; 2Abz = Nc1ccccc1C(=O)O

Columns and labels:
DegS = assay: Rse- protease degradation assay; format: biochemical, Escherichia coli; conditions: DegS 25 μM, phosphate buffer pH 7.5, 37°C
Experimental: (§1) FIG 1 Degradation of MucA and MucB by AlgW in response to the peptides and lipid signals. (A and B) MucB/RseB (130 μM) was cleaved by AlgW/DegS (25 μM) in the presence of different agonist combinations, including lipid-A (100 μM), lipid-like detergent DDM (400 μM), decapeptide SVRDELRWVF (100 μM), and decapeptide combined with lipid-A or DDM. (C and D) MucB/RseB-protected MucA^peri/RseA^peri degradation by AlgW/DegS in the presence of different lengths of the activating peptides in a time-dependent manner. MucA^peri (125 μM), AlgW (25 μM), MucB (130 μM), activation peptides (tripeptide WVF or decapeptide SVRDELRWVF, 100 μM), and lipid-A (100 μM) were incubated at 37°C in a time-dependent manner in buffer (25 mM Tris-HCl pH 7.5, 150 mM NaCl). Similarly, RseA^peri (125 μM) was cleaved by DegS (25 μM) in the presences of RseB (130 μM), activation peptides (tripeptide YYF or decapeptide DNRDGNVYYF, 100 μM), and lipid-A (100 μM) at 37°C in a time-dependent manner in a phosphate buffer containing 50 mM NaHPO4 (pH 7.5), 200 mM NaCl, 10% glycerol, and 4 mM EDTA. (E and F) MucA^peri/RseA^peri was cleaved by AlgW/DegS in the presence of different agonist combinations in a time-dependent manner. MucA^peri (125 μM), AlgW (25 μM), activation decapeptide SVRDELRWVF (100 μM), and lipid-A (100 μM) were incubated at 37°C in a time-dependent manner in buffer. […]

AlgW-DegS-LA (63–78) = system: T1, AlgW-DegS-LA (63–78); assay: Fluorogenic Abz-VLAG-pNA cleavage by peptide-activated AlgW and LA loop mutants (200 nM), 25 mM Tris pH 7.5, 150 mM NaCl, 37°C, Michaelis-Menten fit.; format: biochemical; conditions: n = 3
T1 construct: residues 30-389; LA loop 76-97 replaced by the corresponding region 63-78 of DegS
Experimental: Based on the identified MucA and MucB cleavage sites for AlgW ([6], [13]), self-quenching fluorogenic tetrapeptides derived from 134-VLAG-137 of MucA (Abz-VLAG-pNA), 211-TVAW-214 of MucB (Abz-TVAW-pNA), and alanine tetrapeptide (Abz-AAAA-pNA) were synthesized and subjected to real-time measurement of AlgW proteolytic activity in the presence of excessive peptides (10 mM) (Fig. 2A). Compared with the negative-control group (using Abz-AAAA-pNA substrate), both Abz-VLAG-pNA and Abz-TVAW-pNA could be efficiently cleaved by AlgW. […]
(§2) For the enzyme mechanism of AlgW (30–389) and mutants, two internally quenched fluorescent peptide substrates incorporating the peptidase cleavage site of MucA/MucB, Abz-VLAG-pNA and Abz-TVAW-pNA, were designed and synthesized (GL Biochem Shanghai Ltd., China). In the intact peptide, the fluorescence of the anthraniloyl group is quenched by the P-nitroaniline (Abz is a fluorogenic group, and pNA is a quencher of fluorescence). This quenched fluorescence is liberated upon cleavage of peptide by 200 nM AlgW and mutants (200/3 nM for trimer), resulting in increased fluorescence that can then be monitored fluorometrically. […] The fluorescent degradation products were monitored at 60-s intervals at fluorescence wavelength—λex = 310 nm, λem = 420 nm ([41]). […]

AlgW [1] = assay: AlgW activation by agonist gradient (agonists versus velocity), saturated Abz-VLAG-pNA; format: biochemical, Pseudomonas aeruginosa; conditions: 100 μM Abz-VLAG-pNA, 200 nM AlgW
Experimental: (§3) FIG 2 Determination of enzyme apparent kinetic parameters of dual-signal-activated AlgW. (A) Activity assay of tripeptide or decapeptide-activated AlgW using the quenched fluorescent substrates Abz-VLAG-pNA, Abz-TVAW-pNA, and Abz-AAAA-pNA. All assays were placed in a buffer containing 25 mM Tris (pH 7.5) and 150 mM NaCl at 37°C for 1 h by adding 100 μM substrate, 200 nM AlgW, and 10 mM agonist peptides (tripeptide WVF or decapeptide SVRDELRWVF). (B) The apparent Michaelis-Menten parameters of AlgW cleavage quenched fluorescent substrates Abz-VLAG-pNA (100 μM) under the condition of peptide or lipid activation. (C) The activity assay of peptide or DDM activated AlgW using the saturated quenched fluorescent substrates Abz-VLAG-pNA. Under the gradient of peptide or DDM concentration,100 μM substrate and 200 nM AlgW were coincubated with or without 400 μM DDM or 10 mM agonist peptides in a buffer containing 25 mM Tris (pH 7.5) and 150 mM NaCl at 37°C for 1 h. The final assay volume of all experiments was 100 μl, and the appearance of fluorescent products was monitored at 60-s intervals at fluorescence wavelengths of λex = 310 nm and λem = 420 nm. […] The Kcat for the AlgW trimer was calculated by Kcat = Vmax/(Etotal), (Etotal) = 200/3 nM trimers. […]
as §2

AlgW [2] = assay: Muc- protease degradation assay; format: biochemical, Pseudomonas aeruginosa; conditions: MucB 130 μM, AlgW 25 μM; lipid-A 100 μM, DDM 400 μM or decapeptide 100 μM; 25 mM Tris-HCl pH 7.5, 150 mM NaCl, 37°C; 30 min; gel bands
Experimental: as §1

AlgW [3] = target: T2, AlgW (Pseudomonas aeruginosa, UniProt Q9HVX1); assay: Activation of 200 nM AlgW cleavage of 100 μM Abz-VLAG-pNA by a DDM gradient without agonist peptide, 25 mM Tris pH 7.5, 150 mM NaCl, 37°C, Hill-type fit.; format: biochemical; conditions: n = 3; read-out: Half-Maximal Activation concentration (μM), DDM gradient
T2 construct: soluble periplasmic region, residues 30-389, pET22b with PreScission-cleavable 6xHis; trimer
T2 sequence (Q9HVX1 entry or part of it): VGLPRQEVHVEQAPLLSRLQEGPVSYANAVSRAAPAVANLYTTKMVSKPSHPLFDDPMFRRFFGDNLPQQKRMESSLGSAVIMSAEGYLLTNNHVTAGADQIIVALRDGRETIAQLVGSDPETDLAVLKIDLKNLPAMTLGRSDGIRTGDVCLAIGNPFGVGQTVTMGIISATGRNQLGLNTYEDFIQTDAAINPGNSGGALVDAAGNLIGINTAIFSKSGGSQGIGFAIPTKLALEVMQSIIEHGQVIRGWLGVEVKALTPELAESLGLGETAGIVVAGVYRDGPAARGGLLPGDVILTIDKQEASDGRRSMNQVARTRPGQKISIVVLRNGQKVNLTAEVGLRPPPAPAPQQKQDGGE
Experimental: as §3, with “Under the gradient of peptide or DDM concentration,100 μM substrate and 200 nM AlgW were coincubated with or without 400 μM DDM or 10 mM agonist peptides in a buffer containing 25 mM Tris (pH 7.5) and 150 mM NaCl at 37°C for 1 h.” left out
In the presence of a fixed amount of AlgW and saturated substrate, we measured the initial rates of AlgW at various concentrations of decapeptide or DDM (Fig. 2C). […]

[4] = target: the molecule itself; assay: crystal structure; protein mixed with peptide activator (tripeptide WVF or decapeptide …) prior to crystallization; hanging-drop vapor diffusion at 18°C; molecular replacement

DNRDGNVYYF
RseB cleavage by DegS (DegS; RseB 130 μM, decapeptide 100 μM): no proteolysis was noticed

CC(C)C[C@H](NC(=O)[C@@H](NC(=O)c1ccccc1N)C(C)C)C(=O)N[C@@H](C)C(=O)NCC(=O)Nc1ccc([N+](=O)[O-])cc1 [Abz-VLAG-pNA, anthraniloyl-Val-Leu-Ala-Gly-p-nitroaniline (quenched fluorogenic tetrapeptide, MucA 134-137)] (H-[2Abz]VLAG-pNA)
Km (AlgW-DegS-LA (63–78)): 12 ± 2.85 µM

CCCCCCCCCCCCO[C@@H]1O[C@H](CO)[C@@H](O[C@H]2O[C@H](CO)[C@@H](O)[C@H](O)[C@H]2O)[C@H](O)[C@H]1O [DDM, N-dodecyl-β-D-maltopyranoside]
Maximal cleavage activity (AlgW [1]; DDM gradient with 10 mM decapeptide (AlgW+Decapeptide), Tris pH 7.5, 37°C, 1 h): 717.8 ± 15.07 µM/min
Hill constants (AlgW [1]; gradient of the agonist alone): 1.43 and 1.43 ± 0.22
EC50 (AlgW [1]; gradient of the agonist alone, Tris pH 7.5, 37°C, Hill fit, three independent determinations, read-out: Half-Maximal Activation concentration): 92 ± 12.4 µM
MucB cleavage by AlgW (AlgW [2]): could be activated
EC50 (AlgW [3]): 92 ± 12.4 µM

lipid-A
MucB cleavage by AlgW (AlgW [2]): could be activated
RseA^peri degradation by DegS (DegS; RseA^peri 125 μM, lipid-A 100 μM with or without decapeptide DNRDGNVYYF 100 μM): did not display obvious direct or cooperative activation

B1: AlgW_(52-389), periplasmic soluble domain of AlgW for crystallization (enzyme)
chain: PVSYANAVSRAAPAVANLYTTKMVSKPSHPLFDDPMFRRFFGDNLPQQKRMESSLGSAVIMSAEGYLLTNNHVTAGADQIIVALRDGRETIAQLVGSDPETDLAVLKIDLKNLPAMTLGRSDGIRTGDVCLAIGNPFGVGQTVTMGIISATGRNQLGLNTYEDFIQTDAAINPGNSGGALVDAAGNLIGINTAIFSKSGGSQGIGFAIPTKLALEVMQSIIEHGQVIRGWLGVEVKALTPELAESLGLGETAGIVVAGVYRDGPAARGGLLPGDVILTIDKQEASDGRRSMNQVARTRPGQKISIVVLRNGQKVNLTAEVGLRPPPAPAPQQKQDGGE
notes: Vector pET22b-(LEVLFQ/GP)-6xHis has a PreScission site that allows removal of the His tag; source: E. coli BL21(DE3), purified (Ni-NTA, Superdex-75 SEC)
stoichiometry N [4]: 3

B2: AlgWS227A (inactive mutant of the periplasmic soluble domain of AlgW, for crystallization) (enzyme)
chain: PVSYANAVSRAAPAVANLYTTKMVSKPSHPLFDDPMFRRFFGDNLPQQKRMESSLGSAVIMSAEGYLLTNNHVTAGADQIIVALRDGRETIAQLVGSDPETDLAVLKIDLKNLPAMTLGRSDGIRTGDVCLAIGNPFGVGQTVTMGIISATGRNQLGLNTYEDFIQTDAAINPGNAGGALVDAAGNLIGINTAIFSKSGGSQGIGFAIPTKLALEVMQSIIEHGQVIRGWLGVEVKALTPELAESLGLGETAGIVVAGVYRDGPAARGGLLPGDVILTIDKQEASDGRRSMNQVARTRPGQKISIVVLRNGQKVNLTAEVGLRPPPAPAPQQKQDGGE
notes: AlgW of Pseudomonas aeruginosa, residues 52-389 (construct for crystallization), catalytic serine S227 changed to alanine; source: E. coli BL21(DE3), purified (Ni-NTA, Superdex-75 SEC)
stoichiometry N [4]: 3
